Laboratory results from ChEMBL document CHEMBL3885881, “DrugMatrix”.

Species: Rattus norvegicus
Experiment: DrugMatrix - Regimen: Daily Repeat
Type: toxicity, organism-based, Sprague-Dawley
Design: regimen Daily Repeat, gender Male, age 6-8 weeks
Conditions: in vivo, po, route oral GAVAGE, […]; for ABSOLUTE BASOPHIL / ABSOLUTE EOSINOPHIL / ABSOLUTE LYMPHOCYTE / ABSOLUTE MONOCYTE / ABSOLUTE SEGMENTED NEUTROPHIL / BASOPHIL / EOSINOPHIL / ERYTHROCYTE COUNT / HEMATOCRIT / HEMOGLOBIN / LEUKOCYTE COUNT / LYMPHOCYTE / MEAN CORPUSCULAR HEMOGLOBIN / MEAN CORPUSCULAR HEMOGLOBIN CONCENTRATION / MONOCYTE / NEUTROPHIL / NUCLEATED RED BLOOD CELLS / PLATELET COUNT: tissue Blood; for ALANINE AMINOTRANSFERASE / ALBUMIN / ALKALINE PHOSPHATASE / ASPARTATE AMINOTRANSFERASE / BLOOD UREA NITROGEN / CARBON DIOXIDE / CHLORIDE / CHOLESTEROL / CREATINE PHOSPHOKINASE / CREATININE / GLUCOSE / LACTATE DEHYDROGENASE / LIPASE / PHOSPHORUS / POTASSIUM / SODIUM / TOTAL BILIRUBIN / TOTAL PROTEIN / URIC ACID: tissue Plasma
[1] = 0 mg/kg, 72 h, dose level Control, time 3 day
[2] = 0 mg/kg, 120 h, dose level Control, time 5 day
[3] = 54 mg/kg, 72 h, dose level Low, time 3 day
[4] = 54 mg/kg, 120 h, dose level Low, time 5 day

CC(C)Cc1ccc(C(C)C(=O)O)cc1 (configuration not stated) [IBUPROFEN]
ABSOLUTE BASOPHIL [1]: 0 CELLS/uL | ABSOLUTE EOSINOPHIL [1]: 0 CELLS/uL | ABSOLUTE LYMPHOCYTE [1]: 7601 CELLS/uL | ABSOLUTE MONOCYTE [1]: 354.33 CELLS/uL | ABSOLUTE SEGMENTED NEUTROPHIL [1]: 744.67 CELLS/uL | BASOPHIL [1]: 0% | EOSINOPHIL [1]: 0% | ERYTHROCYTE COUNT [1]: 5.03 x10E6/uL | HEMATOCRIT [1]: 33.7% | HEMOGLOBIN [1]: 13.43 G/DL | LEUKOCYTE COUNT [1]: 8.7 x10E3/uL | LYMPHOCYTE [1]: 86.33% | MEAN CORPUSCULAR HEMOGLOBIN [1]: 26.7 pg | MEAN CORPUSCULAR HEMOGLOBIN CONCENTRATION [1]: 39.83 G/DL | MONOCYTE [1]: 4.67% | NEUTROPHIL [1]: 9% | NUCLEATED RED BLOOD CELLS [1]: 0 /100WBC | PLATELET COUNT [1]: 1151 x10E3/uL | ALANINE AMINOTRANSFERASE [1]: 97.67 u/L | ALBUMIN [1]: 4.07 G/DL | ALKALINE PHOSPHATASE [1]: 607.67 u/L | ASPARTATE AMINOTRANSFERASE [1]: 101 u/L | BLOOD UREA NITROGEN [1]: 13.33 mg/dL | CARBON DIOXIDE [1]: 36 mmol/L | CHLORIDE [1]: 99.67 MEQ/L | CHOLESTEROL [1]: 75.67 mg/dL | CREATINE PHOSPHOKINASE [1]: 279.67 u/L | CREATININE [1]: 0.16 mg/dL | GLUCOSE [1]: 164 mg/dL | LACTATE DEHYDROGENASE [1]: 115 u/L | LIPASE [1]: 12.67 u/L | PHOSPHORUS [1]: 8.77 mg/dL | POTASSIUM [1]: 5.79 MEQ/L | SODIUM [1]: 142.83 MEQ/L | TOTAL BILIRUBIN [1]: 0.27 mg/dL | TOTAL PROTEIN [1]: 5.8 G/DL | URIC ACID [1]: 0.67 mg/dL | ABSOLUTE BASOPHIL [2]: 0 CELLS/uL | ABSOLUTE EOSINOPHIL [2]: 0 CELLS/uL | ABSOLUTE LYMPHOCYTE [2]: 4426.33 CELLS/uL | ABSOLUTE MONOCYTE [2]: 102.67 CELLS/uL | ABSOLUTE SEGMENTED NEUTROPHIL [2]: 337.67 CELLS/uL | BASOPHIL [2]: 0% | EOSINOPHIL [2]: 0% | ERYTHROCYTE COUNT [2]: 5.31 x10E6/uL | HEMATOCRIT [2]: 32.5% | HEMOGLOBIN [2]: 13.17 G/DL | LEUKOCYTE COUNT [2]: 4.87 x10E3/uL | LYMPHOCYTE [2]: 90.33% | MEAN CORPUSCULAR HEMOGLOBIN [2]: 24.93 pg | MEAN CORPUSCULAR HEMOGLOBIN CONCENTRATION [2]: 40.67 G/DL | MONOCYTE [2]: 2.33% | NEUTROPHIL [2]: 7.33% | NUCLEATED RED BLOOD CELLS [2]: 0.33 /100WBC | PLATELET COUNT [2]: 848.33 x10E3/uL | ALANINE AMINOTRANSFERASE [2]: 59.67 u/L | ALBUMIN [2]: 3.87 G/DL | ALKALINE PHOSPHATASE [2]: 452 u/L | ASPARTATE AMINOTRANSFERASE [2]: 81.33 u/L | BLOOD UREA NITROGEN [2]: 13.67 mg/dL | CARBON DIOXIDE [2]: 26.33 mmol/L | CHLORIDE [2]: 103.67 MEQ/L | CHOLESTEROL [2]: 65.67 mg/dL | CREATINE PHOSPHOKINASE [2]: 355.33 u/L | CREATININE [2]: 0.14 mg/dL | GLUCOSE [2]: 171.33 mg/dL | LACTATE DEHYDROGENASE [2]: 118 u/L | LIPASE [2]: 11.33 u/L | PHOSPHORUS [2]: 11.13 mg/dL | POTASSIUM [2]: 5.18 MEQ/L | SODIUM [2]: 143.17 MEQ/L | TOTAL BILIRUBIN [2]: 0.2 mg/dL | TOTAL PROTEIN [2]: 5.87 G/DL | URIC ACID [2]: 0.63 mg/dL | ABSOLUTE BASOPHIL [3]: 0 CELLS/uL | ABSOLUTE EOSINOPHIL [3]: 0 CELLS/uL | ABSOLUTE LYMPHOCYTE [3]: 9143 CELLS/uL | ABSOLUTE MONOCYTE [3]: 146.33 CELLS/uL | ABSOLUTE SEGMENTED NEUTROPHIL [3]: 1110.67 CELLS/uL | BASOPHIL [3]: 0% | EOSINOPHIL [3]: 0% | ERYTHROCYTE COUNT [3]: 5.12 x10E6/uL | HEMATOCRIT [3]: 32.67% | HEMOGLOBIN [3]: 12.97 G/DL | LEUKOCYTE COUNT [3]: 10.4 x10E3/uL | LYMPHOCYTE [3]: 88% | MEAN CORPUSCULAR HEMOGLOBIN [3]: 25.37 pg | MEAN CORPUSCULAR HEMOGLOBIN CONCENTRATION [3]: 39.7 G/DL | MONOCYTE [3]: 1.33% | NEUTROPHIL [3]: 10.67% | NUCLEATED RED BLOOD CELLS [3]: 0 /100WBC | PLATELET COUNT [3]: 1145.67 x10E3/uL | ALANINE AMINOTRANSFERASE [3]: 89.33 u/L | ALBUMIN [3]: 4 G/DL | ALKALINE PHOSPHATASE [3]: 470.33 u/L | ASPARTATE AMINOTRANSFERASE [3]: 89.33 u/L | BLOOD UREA NITROGEN [3]: 14.33 mg/dL | CARBON DIOXIDE [3]: 40.33 mmol/L | CHLORIDE [3]: 98 MEQ/L | CHOLESTEROL [3]: 76.67 mg/dL | CREATINE PHOSPHOKINASE [3]: 208.67 u/L | CREATININE [3]: 0.13 mg/dL | GLUCOSE [3]: 160.67 mg/dL | LACTATE DEHYDROGENASE [3]: 55 u/L | LIPASE [3]: 10.67 u/L | PHOSPHORUS [3]: 9.53 mg/dL | POTASSIUM [3]: 5.26 MEQ/L | SODIUM [3]: 143.43 MEQ/L | TOTAL BILIRUBIN [3]: 0.2 mg/dL | TOTAL PROTEIN [3]: 5.9 G/DL | URIC ACID [3]: 0.37 mg/dL | ABSOLUTE BASOPHIL [4]: 0 CELLS/uL | ABSOLUTE EOSINOPHIL [4]: 0 CELLS/uL | ABSOLUTE LYMPHOCYTE [4]: 9058.67 CELLS/uL | ABSOLUTE MONOCYTE [4]: 185 CELLS/uL | ABSOLUTE SEGMENTED NEUTROPHIL [4]: 289.67 CELLS/uL | BASOPHIL [4]: 0% | EOSINOPHIL [4]: 0% | ERYTHROCYTE COUNT [4]: 5.22 x10E6/uL | HEMATOCRIT [4]: 32.87% | HEMOGLOBIN [4]: 13 G/DL | LEUKOCYTE COUNT [4]: 9.53 x10E3/uL | LYMPHOCYTE [4]: 95.33% | MEAN CORPUSCULAR HEMOGLOBIN [4]: 24.87 pg | MEAN CORPUSCULAR HEMOGLOBIN CONCENTRATION [4]: 39.57 G/DL | MONOCYTE [4]: 1.67% | NEUTROPHIL [4]: 3% | NUCLEATED RED BLOOD CELLS [4]: 0 /100WBC | PLATELET COUNT [4]: 1110.33 x10E3/uL | ALANINE AMINOTRANSFERASE [4]: 65.67 u/L | ALBUMIN [4]: 3.9 G/DL | ALKALINE PHOSPHATASE [4]: 301 u/L | ASPARTATE AMINOTRANSFERASE [4]: 84.67 u/L | BLOOD UREA NITROGEN [4]: 12.67 mg/dL | CARBON DIOXIDE [4]: 28.67 mmol/L | CHLORIDE [4]: 103.67 MEQ/L | CHOLESTEROL [4]: 69.67 mg/dL | CREATINE PHOSPHOKINASE [4]: 213.67 u/L | CREATININE [4]: 0.23 mg/dL | GLUCOSE [4]: 164 mg/dL | LIPASE [4]: 11 u/L | PHOSPHORUS [4]: 11.1 mg/dL | POTASSIUM [4]: 5.49 MEQ/L | SODIUM [4]: 144.2 MEQ/L | TOTAL BILIRUBIN [4]: 0.13 mg/dL | TOTAL PROTEIN [4]: 5.87 G/DL | URIC ACID [4]: 0.57 mg/dL
